test system: MGC-803; test: Antiproliferative activity against human MGC-803 cells assessed as inhibition of cell growth measured after 48 hrs by CCK8 method; format: functional, cell-based; details: MGC-803, 48 h

| IC50 | Structure (SMILES) |
| --- | --- |
| 0.82 µM | COc1ccc(CN(C(=O)Cn2cc(CSc3nc4ccccc4s3)nn2)c2cc(OC)c(OC)c(OC)c2)cc1Br |
| 68.5 µM | COc1ccc(CN(C(=O)Cn2cc(CSc3nc4ccccc4s3)nn2)c2ccc(F)cc2)cc1 |
| 74.3 µM | COc1cc(N(Cc2ccc(Br)cc2)C(=O)Cn2cc(CSc3nc4ccccc4s3)nn2)cc(OC)c1OC |
| 8.16 µM | COc1ccc(CN(C(=O)Cn2cc(CSc3nc4ccccc4s3)nn2)c2cc(OC)c(OC)c(OC)c2)cc1[N+](=O)[O-] |
| 14.5 µM | COc1ccc(CN(C(=O)Cn2cc(CSc3nc4ccccc4s3)nn2)c2ccc(OC)cc2)cc1 |
| 0.054 µM | COc1ccc(CN(C(=O)Cn2cc(CSc3nc4ccc(Br)cc4s3)nn2)c2cc(OC)c(OC)c(OC)c2)cc1O |
| 38.5 µM | COc1ccc(CN(C(=O)Cn2cc(CSc3nc4ccccc4s3)nn2)c2ccc(OC)c(OC)c2)cc1 |
| 1.56 µM | COc1ccc(CN(C(=O)Cn2cc(CSc3nc4ccccc4s3)nn2)c2cc(OC)c(OC)c(OC)c2)cc1OC |
| 53.3 µM | COc1ccc(CN(C(=O)Cn2cc(CSc3nc4ccccc4s3)nn2)c2ccc(Br)cc2)cc1 |
| > 80 µM | COc1cc(CN(C(=O)Cn2cc(CSc3nc4ccccc4s3)nn2)c2cc(OC)c(OC)c(OC)c2)cc(OC)c1OC |
| 52.5 µM | COc1ccc(CN(C(=O)Cn2cc(CSc3nc4ccccc4s3)nn2)c2ccccc2)cc1 |
| 0.29 µM | COc1ccc(CN(C(=O)Cn2cc(CSc3nc4ccccc4s3)nn2)c2cc(OC)c(OC)c(OC)c2)cc1F |
| 40.3 µM | COc1cc(N(Cc2nc3ccccc3[nH]2)C(=O)Cn2cc(CSc3nc4ccccc4s3)nn2)cc(OC)c1OC |
| > 80 µM | COc1cc(N(Cc2ccc(F)cc2)C(=O)Cn2cc(CSc3nc4ccccc4s3)nn2)cc(OC)c1OC |
| 1.03 µM | COc1ccc(CN(C(=O)Cn2cc(CSc3nc4ccccc4s3)nn2)c2cc(OC)c(OC)c(OC)c2)cc1 |
| 46.5 µM | COc1ccc(CN(C(=O)Cn2cc(CSc3nc4ccccc4s3)nn2)c2ccc(C)cc2)cc1 |
| 0.088 µM | COc1ccc(CN(C(=O)Cn2cc(CSc3nc4ccccc4s3)nn2)c2cc(OC)c(OC)c(OC)c2)cc1N |
| > 80 µM | COc1cc(N(Cc2ccc(Cl)cc2)C(=O)Cn2cc(CSc3nc4ccccc4s3)nn2)cc(OC)c1OC |
| 2.35 µM | COc1cc(N(Cc2ccc(C)cc2)C(=O)Cn2cc(CSc3nc4ccccc4s3)nn2)cc(OC)c1OC |
| 0.063 µM | COc1ccc2nc(SCc3cn(CC(=O)N(Cc4ccc(OC)c(O)c4)c4cc(OC)c(OC)c(OC)c4)nn3)sc2c1 |
| > 80 µM | COc1cc(N(Cc2c(C)noc2C)C(=O)Cn2cc(CSc3nc4ccccc4s3)nn2)cc(OC)c1OC |
| 0.069 µM | COc1ccc(CN(C(=O)Cn2cc(CSc3nc4ccc(Cl)cc4s3)nn2)c2cc(OC)c(OC)c(OC)c2)cc1O |
| 0.089 µM | COc1ccc(CN(C(=O)Cn2cc(CSc3nc4c(C)cccc4s3)nn2)c2cc(OC)c(OC)c(OC)c2)cc1O |
| 62.1 µM | COc1ccc(CN(C(=O)Cn2cc(CSc3nc4ccccc4s3)nn2)c2ccc(Cl)cc2)cc1 |
| > 80 µM | COc1cc(N(Cc2cccnc2)C(=O)Cn2cc(CSc3nc4ccccc4s3)nn2)cc(OC)c1OC |

| Structure (SMILES) | IC50 |
| --- | --- |
| COc1cc2c(c(OC)c1OC)-c1ccc(OC)c(=O)cc1[C@@H](NC(C)=O)CC2 [COLCHICINE] | 0.046 µM |

test system: KYSE-30; test: Antiproliferative activity against human KYSE-30 cells assessed as inhibition of cell growth measured after 48 hrs by CCK8 method; format: functional, cell-based; details: KYSE-30, 48 h

| Structure (SMILES) | IC50 |
| --- | --- |
| COc1ccc(CN(C(=O)Cn2cc(CSc3nc4ccccc4s3)nn2)c2cc(OC)c(OC)c(OC)c2)cc1Br | 1.14 µM |
| COc1ccc(CN(C(=O)Cn2cc(CSc3nc4ccccc4s3)nn2)c2ccc(F)cc2)cc1 | 77.6 µM |
| COc1cc(N(Cc2ccc(Br)cc2)C(=O)Cn2cc(CSc3nc4ccccc4s3)nn2)cc(OC)c1OC | > 80 µM |
| COc1ccc(CN(C(=O)Cn2cc(CSc3nc4ccccc4s3)nn2)c2cc(OC)c(OC)c(OC)c2)cc1[N+](=O)[O-] | 12.1 µM |
| COc1ccc(CN(C(=O)Cn2cc(CSc3nc4ccccc4s3)nn2)c2ccc(OC)cc2)cc1 | 28.3 µM |
| COc1ccc(CN(C(=O)Cn2cc(CSc3nc4ccc(Br)cc4s3)nn2)c2cc(OC)c(OC)c(OC)c2)cc1O | 0.049 µM |
| COc1cc2c(c(OC)c1OC)-c1ccc(OC)c(=O)cc1[C@@H](NC(C)=O)CC2 [COLCHICINE] | 0.048 µM |
| COc1ccc(CN(C(=O)Cn2cc(CSc3nc4ccccc4s3)nn2)c2ccc(OC)c(OC)c2)cc1 | > 80 µM |
| COc1ccc(CN(C(=O)Cn2cc(CSc3nc4ccccc4s3)nn2)c2cc(OC)c(OC)c(OC)c2)cc1OC | 1.74 µM |
| COc1ccc(CN(C(=O)Cn2cc(CSc3nc4ccccc4s3)nn2)c2ccc(Br)cc2)cc1 | 35.5 µM |
| COc1cc(CN(C(=O)Cn2cc(CSc3nc4ccccc4s3)nn2)c2cc(OC)c(OC)c(OC)c2)cc(OC)c1OC | > 80 µM |
| COc1ccc(CN(C(=O)Cn2cc(CSc3nc4ccccc4s3)nn2)c2ccccc2)cc1 | 62.2 µM |
| COc1ccc(CN(C(=O)Cn2cc(CSc3nc4ccccc4s3)nn2)c2cc(OC)c(OC)c(OC)c2)cc1F | 0.76 µM |
| COc1cc(N(Cc2nc3ccccc3[nH]2)C(=O)Cn2cc(CSc3nc4ccccc4s3)nn2)cc(OC)c1OC | 56.8 µM |
| COc1cc(N(Cc2ccc(F)cc2)C(=O)Cn2cc(CSc3nc4ccccc4s3)nn2)cc(OC)c1OC | > 80 µM |
| COc1ccc(CN(C(=O)Cn2cc(CSc3nc4ccccc4s3)nn2)c2cc(OC)c(OC)c(OC)c2)cc1 | 1.44 µM |
| COc1ccc(CN(C(=O)Cn2cc(CSc3nc4ccccc4s3)nn2)c2ccc(C)cc2)cc1 | 63.1 µM |
| COc1ccc(CN(C(=O)Cn2cc(CSc3nc4ccccc4s3)nn2)c2cc(OC)c(OC)c(OC)c2)cc1N | 0.059 µM |
| COc1cc(N(Cc2ccc(Cl)cc2)C(=O)Cn2cc(CSc3nc4ccccc4s3)nn2)cc(OC)c1OC | > 80 µM |
| COc1cc(N(Cc2ccc(C)cc2)C(=O)Cn2cc(CSc3nc4ccccc4s3)nn2)cc(OC)c1OC | 1.86 µM |
| COc1ccc2nc(SCc3cn(CC(=O)N(Cc4ccc(OC)c(O)c4)c4cc(OC)c(OC)c(OC)c4)nn3)sc2c1 | 0.058 µM |
| COc1cc(N(Cc2c(C)noc2C)C(=O)Cn2cc(CSc3nc4ccccc4s3)nn2)cc(OC)c1OC | > 80 µM |
| COc1ccc(CN(C(=O)Cn2cc(CSc3nc4ccc(Cl)cc4s3)nn2)c2cc(OC)c(OC)c(OC)c2)cc1O | 0.072 µM |
| COc1ccc(CN(C(=O)Cn2cc(CSc3nc4c(C)cccc4s3)nn2)c2cc(OC)c(OC)c(OC)c2)cc1O | 0.067 µM |
| COc1ccc(CN(C(=O)Cn2cc(CSc3nc4ccccc4s3)nn2)c2ccc(Cl)cc2)cc1 | > 80 µM |
| COc1cc(N(Cc2cccnc2)C(=O)Cn2cc(CSc3nc4ccccc4s3)nn2)cc(OC)c1OC | > 80 µM |

test system: HCT-116; test: Antiproliferative activity against human HCT-116 cells assessed as inhibition of cell growth measured after 48 hrs by CCK8 method; format: functional, cell-based; details: HCT-116, 48 h

| IC50 | Structure (SMILES) |
| --- | --- |
| 1.33 µM | COc1ccc(CN(C(=O)Cn2cc(CSc3nc4ccccc4s3)nn2)c2cc(OC)c(OC)c(OC)c2)cc1Br |
| > 80 µM | COc1ccc(CN(C(=O)Cn2cc(CSc3nc4ccccc4s3)nn2)c2ccc(F)cc2)cc1 |
| 60.1 µM | COc1cc(N(Cc2ccc(Br)cc2)C(=O)Cn2cc(CSc3nc4ccccc4s3)nn2)cc(OC)c1OC |
| 16.2 µM | COc1ccc(CN(C(=O)Cn2cc(CSc3nc4ccccc4s3)nn2)c2cc(OC)c(OC)c(OC)c2)cc1[N+](=O)[O-] |
| 34.2 µM | COc1ccc(CN(C(=O)Cn2cc(CSc3nc4ccccc4s3)nn2)c2ccc(OC)cc2)cc1 |
| 0.064 µM | COc1ccc(CN(C(=O)Cn2cc(CSc3nc4ccc(Br)cc4s3)nn2)c2cc(OC)c(OC)c(OC)c2)cc1O |
| 52.4 µM | COc1ccc(CN(C(=O)Cn2cc(CSc3nc4ccccc4s3)nn2)c2ccc(OC)c(OC)c2)cc1 |
| 2.19 µM | COc1ccc(CN(C(=O)Cn2cc(CSc3nc4ccccc4s3)nn2)c2cc(OC)c(OC)c(OC)c2)cc1OC |
| 60.3 µM | COc1ccc(CN(C(=O)Cn2cc(CSc3nc4ccccc4s3)nn2)c2ccc(Br)cc2)cc1 |
| > 80 µM | COc1cc(CN(C(=O)Cn2cc(CSc3nc4ccccc4s3)nn2)c2cc(OC)c(OC)c(OC)c2)cc(OC)c1OC |
| 63.7 µM | COc1ccc(CN(C(=O)Cn2cc(CSc3nc4ccccc4s3)nn2)c2ccccc2)cc1 |
| 0.47 µM | COc1ccc(CN(C(=O)Cn2cc(CSc3nc4ccccc4s3)nn2)c2cc(OC)c(OC)c(OC)c2)cc1F |
| 68.7 µM | COc1cc(N(Cc2nc3ccccc3[nH]2)C(=O)Cn2cc(CSc3nc4ccccc4s3)nn2)cc(OC)c1OC |
| > 80 µM | COc1cc(N(Cc2ccc(F)cc2)C(=O)Cn2cc(CSc3nc4ccccc4s3)nn2)cc(OC)c1OC |
| 1.68 µM | COc1ccc(CN(C(=O)Cn2cc(CSc3nc4ccccc4s3)nn2)c2cc(OC)c(OC)c(OC)c2)cc1 |
| > 80 µM | COc1ccc(CN(C(=O)Cn2cc(CSc3nc4ccccc4s3)nn2)c2ccc(C)cc2)cc1 |
| 0.094 µM | COc1ccc(CN(C(=O)Cn2cc(CSc3nc4ccccc4s3)nn2)c2cc(OC)c(OC)c(OC)c2)cc1N |
| > 80 µM | COc1cc(N(Cc2ccc(Cl)cc2)C(=O)Cn2cc(CSc3nc4ccccc4s3)nn2)cc(OC)c1OC |
| 3.97 µM | COc1cc(N(Cc2ccc(C)cc2)C(=O)Cn2cc(CSc3nc4ccccc4s3)nn2)cc(OC)c1OC |
| 0.126 µM | COc1ccc2nc(SCc3cn(CC(=O)N(Cc4ccc(OC)c(O)c4)c4cc(OC)c(OC)c(OC)c4)nn3)sc2c1 |
| > 80 µM | COc1cc(N(Cc2c(C)noc2C)C(=O)Cn2cc(CSc3nc4ccccc4s3)nn2)cc(OC)c1OC |
| 0.062 µM | COc1ccc(CN(C(=O)Cn2cc(CSc3nc4ccc(Cl)cc4s3)nn2)c2cc(OC)c(OC)c(OC)c2)cc1O |
| 0.078 µM | COc1ccc(CN(C(=O)Cn2cc(CSc3nc4c(C)cccc4s3)nn2)c2cc(OC)c(OC)c(OC)c2)cc1O |
| 59.5 µM | COc1ccc(CN(C(=O)Cn2cc(CSc3nc4ccccc4s3)nn2)c2ccc(Cl)cc2)cc1 |
| > 80 µM | COc1cc(N(Cc2cccnc2)C(=O)Cn2cc(CSc3nc4ccccc4s3)nn2)cc(OC)c1OC |

molecular target: Tubulin; test: Inhibition of tubulin polymerization (unknown origin) by spectrophotometer analysis; format: protein-complex assay, Homo sapiens; details: not given

| IC50 | Structure (SMILES) |
| --- | --- |
| 13.1 µM | COc1cc(C(=O)c2nc3cc(Br)ccc3s2)cc(OC)c1OC |

molecular target: Tubulin; test: Inhibition of tubulin polymerization (unknown origin); format: protein-complex assay, Homo sapiens; details: not given

| IC50 | Structure (SMILES) |
| --- | --- |
| 1.67 µM | COc1ccc2nc(-c3cccnc3-c3cc(OC)c(OC)c(OC)c3)sc2c1 |
| 1.91 µM | COc1ccc2nc(-c3ccc(-n4cnnc4-c4cc(OC)c(OC)c(OC)c4)c(C)c3)sc2c1 |

test system: PC-3; test: Antiproliferative activity against human PC-3 cells assessed as inhibition of cell growth measured after72 hrs by MTT assay; format: functional, cell-based; details: not given

| IC50 | Structure (SMILES) |
| --- | --- |
| 2.04 µM | COc1cc(N(Cc2c(C)noc2C)C(=O)CSc2nc3ccccc3s2)cc(OC)c1OC |

test system: HeLa; test: Growth inhibition of human HeLa cells; format: functional; details: not given

| GI50 | Structure (SMILES) |
| --- | --- |
| 0.04 µM | COc1ccc2nc(-c3ccc(-n4cnnc4-c4cc(OC)c(OC)c(OC)c4)c(C)c3)sc2c1 |

Source: ChEMBL document CHEMBL5518189, “Design, synthesis and biological evaluation of 1,2,3-triazole benzothiazole derivatives as tubulin polymerization inhibitors with potent anti-esophageal cancer activities” (Eur J Med Chem, 2024)
